Measurements as given in patent US20100222332A1, “PYRAZOLO-PYRAZINES DERIVATIVES USED AS G PROTEIN INHIBITORS” (Ipsen Pharma S.A.S., priority 2007, published 2010).
Structures can show the parent of a compound that is named as a salt. Where two headings read alike, the source gives them in different places.

Columns and labels:
Format in all cases: cell-based
[1] = test system: LNCaP (human prostate cancer cells); assay: Anti-proliferative activity on LNCaP cell line (WST1 colorimetric test); settings: treated for 96 hours, read-out: IC50 on the cell proliferation of the LNCaP lines
Description: (§1) By way of example, the effect of a treatment on three human cell lines DU145, LNCaP and A2058 with the compounds of the examples described previously will be studied. The cell lines DU145 and LNCaP (human prostate cancer cells) and A2058 (human melanoma cancer cells) were acquired from the American Tissue Culture Collection (Rockville, Md., USA). The cells placed in 80 μl of Dulbecco's Modified Eagle medium (Gibco-Brl, Cergy-Pontoise, France) completed with 10% foetal calf serum inactivated by heating (Gibco-Brl, Cergy-Pontoise, France), 50000 units/l of penicillin and 50 mg/l streptomycin (Gibco-Brl, Cergy-Pontoise, France), and 2 mM of glutamin (Gibco-Brl, Cergy-Pontoise, France) were seeded on a 96-well plate on day 0. The cells were treated on day 1 for 96 hours with increasing concentrations of each of the compounds to be tested up to 10 μM. At the end of this period, the quantification of the cell proliferation is evaluated by a colorimetric test based on the cleavage of the tetrazolium salt WST1 by mitochondrial dehydrogenases in the viable cells leading to the formation of formazan (Boehringer Mannheim, Meylan, France). These tests are carried out in duplicate with 8 determinations per tested concentration. For each compound to be tested, the values included in the linear part of the sigmoid were retained for linear regression analysis and used in order to estimate the inhibitory concentration IC50. The products are solubilized in dimethylsulphoxide (DMSO) at 10^−2 M and finally used in culture with 0.1% DMSO.

[2] = test system: DU145 (human prostate cancer cells); assay: Anti-proliferative activity on DU145 cell line (WST1 colorimetric test); settings: DU-145, treated for 96 hours, read-out: IC50 on the cell proliferation of the DU145 lines
Description: as §1

[3] = test system: A2058 (human melanoma cancer cells); assay: Anti-proliferative activity on A2058 cell line (WST1 colorimetric test); settings: treated for 96 hours, bound given in mM, read-out: IC50 on the cell proliferation of the A2058 lines
Description: as §1

| IC50 [1] [µM] | IC50 ([2]; unit inferred) [µM] | IC50 [3] [mM] | IC50 [2] [µM] | Structure (SMILES) |
| --- | --- | --- | --- | --- |
| ≤ 10 | ≤ 15 | ≤ 0.01 | – | CCCCCC1c2cc(-c3ccccc3)nn2CCN1C(=O)[C@@H](N)CSSC[C@H](N)C(=O)N1CCn2nc(-c3ccccc3)cc2C1CCCCC (mixture of isomers) [Example 20, (2R)-3-({(2R)-2-amino-3-oxo-3-[(4RS)-4-pentyl-2-phenyl-6,7-dihydropyrazolo[1,5-a]pyrazin-5(4H)-yl]propyl}dithio)-1-oxo-1-[(4RS)-4-pentyl-2-phenyl-6,7-dihydropyrazolo[1,5-a]pyrazin-5(4H)-yl]propan-2-amine hydrochloride] |
| ≤ 5 | – | ≤ 0.01 | ≤ 20 | CCCCC1c2cc(-c3ccccc3)nn2CCN1C(=O)[C@@H](N)CSSC[C@H](N)C(=O)N1CCn2nc(-c3ccccc3)cc2C1CCCC (mixture of isomers) [Example 21, (2R)-3-({(2R)-2-amino-3-[(4RS)-4-butyl-2-phenyl-6,7-dihydropyrazolo[1,5-a]pyrazin-5(4H)-yl]-3-oxopropyl}dithio)-1-[(4RS)-4-butyl-2-phenyl-6,7-dihydropyrazolo[1,5-a]pyrazin-5(4H)-yl]-1-oxopropan-2-amine hydrochloride] |
| ≤ 1 | – | ≤ 0.01 | ≤ 20 | N[C@@H](CSSC[C@H](N)C(=O)N1CCn2nc(-c3ccc(Cl)cc3Cl)cc2C1CCc1ccccc1)C(=O)N1CCn2nc(-c3ccc(Cl)cc3Cl)cc2C1CCc1ccccc1 (mixture of isomers) [Example 22, (2R)-3-({(2R)-2-amino-3-[(4RS)-2-(2,4-dichlorophenyl)-4-(2-phenylethyl)-6,7-dihydropyrazolo[1,5-a]pyrazin-5(4H)-yl]-3-oxopropyl}dithio)-1-[(4RS)-2-(2,4-dichlorophenyl)-4-(2-phenylethyl)-6,7-dihydropyrazolo[1,5-a]pyrazin-5(4H)-yl]-1-oxopropan-2-amine hydrochloride] |
| ≤ 1 | ≤ 15 | ≤ 0.01 | – | N[C@@H](CSSC[C@H](N)C(=O)N1CCn2nc(-c3ccccc3)cc2[C@@H]1CC1CCCCC1)C(=O)N1CCn2nc(-c3ccccc3)cc2[C@@H]1CC1CCCCC1 [Example 24, (2R)-3-({(2R)-2-amino-3-[(4S)-4-(cyclohexylmethyl)-2-phenyl-6,7-dihydropyrazolo[1,5-a]pyrazin-5(4H)-yl]-3-oxopropyl}dithio)-1-[(4S)-4-(cyclohexylmethyl)-2-phenyl-6,7-dihydropyrazolo[1,5-a]pyrazin-5(4H)-yl]-1-oxopropan-2-amine hydrochloride] |
